Columns and labels:
phosphotyrosine = assay: Tyrosine phosphorylation assay (flow cytometry), Jurkat; assay type: cell-based, human; conditions: 24 h
Protocol: FIG. 20: Suppression of phosphotyrosine levels in Jurkat cells by compound 27. 1×10^6 cells were treated with indicated concentrations of the compound for 24 h. Cells were fixed and permeabilized as described in the “Materials and Methods”, and the extent of tyrosine phosphorylation in the cells was determined by measuring the increase in fluorescence produced by the FITC-labeled monoclonal antibody compared to the FITC-labeled isotype control antibody. 100 nM concentration was sufficient to bring significant reduction in tyrosine phosphorylation levels compared to the control values.
Tyrosine Phosphorylation assay: Tyrosine Phosphorylation assay was performed by the method described by Far, D. F. et. al., (Cytometry (1994) 15(4):327-334) and Park. J. B., et al. ((2003) Cancer Letters, 202 161-171). Briefly, cells (10^6) were washed with ice-cold PBS, pH 7.2 for 30 min at 4° C. After centrifugation and a PBS wash it was treated with 5 ml chilled 70% ethanol. […] Extent of tyrosine phosphorylation in the cells was determined by measuring the increase in fluorescence produced by the FITC-labeled monoclonal antibody compared to the FITC-labeled isotype control antibody. Fluorecence events for 10,000 cells were collected and analyzed by flow cytometry (FACSCalibur cytometer with CellQuest software, Becton Dicinson, San Jose, Calif.).

COX-2 = COX-2 protein expression (ELISA); assay type: cell-based
Protocol: FIG. 6: Effect of CAMVE on TNF or LPS induced COX-2 expression. Cells were pretreated with indicated concentrations of CAMVE for 3 h and then stimulated with either TNF (0.1 nM) or SA-LPS (100 ng/ml) for 12 h. After harvesting the treated cells, the cellular lysates were checked for COX-2 protein expression by an enzyme immunoassay as described in the “Materials and Methods”.
Quantitative detection of Cox 2 protein expression by activated cells was done by an enzyme-linked immunosorbent sandwich assay using Zymed COX-2 ELISA kit. 1×10^7 cells were treated with different concentrations of CAMVE and stimulator and incubated at 37° C. for 12 hrs. […] The protein concentrations of the supernatants were measured by Bradford assay (Anal. Biochem. 72:248-254 (1976). 200 μg/100 μl of the protein was assayed per sample according to the kit protocol. Briefly, 100 μl of the sample and the standard were put in the pre antibody coated wells and incubated at 1 h at 37° C. After three washes 100 μl of the HRP conjugated antibody was added and incubated for 30 m is at 4° C. After washing, […] of the TMB substrate was added and incubated for 30 min at room temperature in dark. The reaction was stopped and the absorbance was read at 450 nm.

NF-κB [1] = assay: NF-κB activation assay, U937; assay type: cell-based, human; conditions: U937, 15 μM 3 h, 0.1 nM TNF 30 min
Protocol: (§1) FIG. 4: Effect of CAMVE on NF-κB activation in different cell lines. A. HeLa, MCF-7, U937, were incubated at 37° C. for 3 h with 15 μM dose of CAMVE and then stimulated with 0.1 nM TNF for 30 min. After these treatments, nuclear extracts were prepared and assayed for NF-κB using BD Transfactor ELISA method. B. RAW 264.7 cells pretreated with indicated doses of CAMVE were stimulated with 100 ng/ml LPS for 30 min and assayed for NF-κB activation.
(§2) Cell pellet was resuspended in lysis buffer (10 mM HEPES, pH 7.9, 1.5 mM MgCl2, 10 mM KCl, 1 mM PMSF, 1 mMDTT, 0.5% NP 40, 0.1 mM EGTA and 0.1 mM EDTA) and allowed to swell on ice for 15 min, followed by centrifugation at 3300×g for 20 min. The cell pellet was resuspended in a volume of lysis buffer equal to the cell pellet volume. The cell suspension was slowly drawn down into a syringe and ejected the content in a single stroke. Disrupted cells were incubated for 15 min on ice, and the disrupted cell suspension was centrifuged at 10,000×g for 20 min at 4° C. […]
(§3) The assay was performed by using wells coated with oligonucleotides having the consensus DNA binding sites for the specific transcription factors. […] Bound transcription factor was detected by a specific Primary Antibody. […] After addition of the substrate, the Absorbance was recorded at 655 nm.

NF-κB [2] = assay: NF-κB activation assay, HeLa; assay type: cell-based, human; conditions: 15 μM 3 h, 0.1 nM TNF 30 min
Protocol: as §1, §2, §3

SMILES	phosphotyrosine level (mean fluorescence intensity) (phosphotyrosine; 100 nM, vs untreated controls)	phosphotyrosine level (phosphotyrosine; all doses)	COX-2 protein induction by compound alone (COX-2; CAMVE alone)	TNF or LPS induced COX-2 protein expression (COX-2; pretreated 3 h, TNF 0.1 nM or SA-LPS 100 ng/ml 12 h)	TNF-induced NF-κB activation (NF-κB [1])	TNF-induced NF-κB activation (NF-κB [2])
COc1cc([C@@H]2Oc3c(OC)cc(/C=C/C(=O)O)cc3[C@H]2C(=O)O)ccc1O [compound 27, 5-[(E)-2-carboxyvinyl]-2β-(4-hydroxy-3-methoxyphenyl)-7-methoxy-2,3-dihydro-1-benzofuran-3α-carboxylic acid]	significant reduction in the mean fluorescence intensity	reduced at all doses				
COC(=O)c1ccc(OC(=O)/C=C/c2ccc(O)c(O)c2)c(OC)c1 [compound 1, Methyl 4-{[(2E)-3-(3,4-dihydroxyphenyl)prop-2-enoyl]oxy}-3-methoxybenzoate]			did not show any induction of COX 2 protein	decreased with increasing concentration of CAMVE treatment	blocks TNF-induced NF-κB activation	blocks TNF-induced NF-κB activation
